Data: patent publication USRE50631E1, “ROR1 antibody immunoconjugates” (VelosBio Inc., priority 2017, dated 2025)
Where “and” joins values, the source holds several entries; their conditions need not be identical. Equal values may be shown once. Non-standard residues stand in square brackets, D forms with d. Residues, ends and D or L forms follow the SMILES beside them. *: point of attachment. Dolaproine = CO[C@@H]([C@@H]1CCCN1)[C@@H](C)C(=O)O; Dil = CC[C@H](C)[C@H](NC)[C@@H](CC(=O)O)OC; X1 = C[C@@H](N*)[C@@H](O)c1ccccc1; NMeV = CN[C@H](C(=O)O)C(C)C

What was measured:
SKOvr3 = test: Cytotoxicity in vitro (CellTiter-Glo viability), SKOvr3; type: cell-based, human; conditions: SKOvr3 (Ovarian), 72 hours
Protocol: (§5) Cells were grown and distributed into 96-well plates as described in Example 5. Cells in duplicate were incubated with 3-fold serial dilution of a particular immunoconjugate (660, 220, 73.3, 24.4, 8.14, 2.71, 0.91, and 0.3 nM) for 72 hours at 37° C. and 5% CO2. […] After treatment, cell viability was determined as described in Example 5.

Mec-ROR = test: Cytotoxicity in vitro (CellTiter-Glo viability), Mec-ROR; conditions: read-out: EC50 (nM), cytotoxicity in vitro; Mec-ROR (CLL), 72 hours
Protocol: (§1) Cells were cultured in log phase growth and distributed into 96-well plates. Each cell line was plated at a slightly different cell density, ranging from 5×10^3 to 50×10^4 cells/well. Cells in duplicate were incubated with 3-fold serial dilution of a particular immunoconjugate (10, 3.33, 1.11, 0.37, 0.12, 0.041, 0.014, and 0.0045 μM) for 72 hours at 37° C. and 5% CO2. After treatment, cells were incubated with an equal volume of CellTiter-Glo® reagent (Promega Inc.) for 15 minutes at room temperature and viability was determined by a luminometer. Curves and EC50 values were generated in GraphPad Prism using a sigmoidal dose response non-linear regression fit.
(§2) Cells were grown and distributed into 96-well plates as described in Example 5. Cells in duplicate were incubated with 3-fold serial dilution of a particular immunoconjugate (660, 220, 73.3, 24.4, 8.14, 2.71, 0.91, and 0.3 nM) for 72 hours at 37° C. and 5% CO2. In some experiments, cells were incubated with an immunoconjugate for 96 hours instead of 72 hours (values highlighted with “*”). After treatment, cell viability was determined as described in Example 5. Cell surface ROR1 expression was assessed by quantitative flow cytometry and ROR1 expression was characterized as MFI>30 or MFI<30 (MFI: mean fluorescent intensity). […]

SAOS = test: Cytotoxicity in vitro (CellTiter-Glo viability), SAOS; type: cell-based, human; conditions: SAOS (OS), 72 hours
A2780 = test: Cytotoxicity in vitro (CellTiter-Glo viability), A2780; type: cell-based, human; conditions: A2780 (Ovarian), 72 hours
As-PC1 = test: Cytotoxicity in vitro (CellTiter-Glo viability), As-PC1; type: cell-based, human; conditions: As-PC1 (Pancreatic), 72 hours
U2OS = type: cell-based, human; conditions: U2OS (OS), 72 hours; read-out: EC50 (nM), cytotoxicity in vitro
Bx-PC3 = test: Cytotoxicity in vitro (CellTiter-Glo viability), Bx-PC3; type: cell-based, human; conditions: Bx-PC3 (Pancreatic), 72 hours
DOHH2 = conditions: read-out: EC50 (nM), cytotoxicity in vitro; DOHH2 (DLBCL), 72 hours
Protocol: (§3) ROR1 binding by these conjugates was tested in cell culture to define the potency of various linker-cytotoxic agent combinations. Three different types of cancer cell lines were tested: B-lymphoma cell-lines TMD-8, HBL-1, and DOHH2; triple negative breast cancer cell lines HCC1187, MDA-MB-468, Bt549; and ovarian cancer cell lines A2008, TOV112D, JHOM1, and SKOvr3.
as §1
(§4) Cells were grown and distributed into 96-well plates as described in Example 5. […] After treatment, cell viability was determined as described in Example 5. Cell surface ROR1 expression was assessed by quantitative flow cytometry and ROR1 expression was characterized as MFI>30 or MFI<30 (MFI: mean fluorescent intensity).

U2932 = test: Cytotoxicity in vitro (CellTiter-Glo viability), U2932; type: cell-based, human; conditions: U2932 (DLBCL), 72 hours
JHOM1 = test: Cytotoxicity in vitro (CellTiter-Glo viability), JHOM1; type: cell-based, human; conditions: JHOM1 (Ovarian), 72 hours
Protocol: as §5

FaDu = type: cell-based, human; conditions: FaDu (HN), 72 hours; read-out: EC50 (nM), cytotoxicity in vitro
OvCar4 = test: Cytotoxicity in vitro (CellTiter-Glo viability), OvCar4; type: cell-based, human; conditions: OvCar4 (Ovarian), 72 hours
HCC1937 = test: Cytotoxicity in vitro (CellTiter-Glo viability), HCC1937; type: cell-based, human; conditions: HCC1937 (TNBC), 72 hours
WSU-DLCL = test: Cytotoxicity in vitro (CellTiter-Glo viability), WSU-DLCL; type: cell-based, human; conditions: WSU-DLCL (DLBCL), 72 hours
Mec-vector = test: Cytotoxicity in vitro (CellTiter-Glo viability), Mec-vector; conditions: read-out: EC50 (nM), cytotoxicity in vitro; Mec-vector (CLL), 72 hours
Protocol: as §1, §2

Bt549 = test: Cytotoxicity in vitro (CellTiter-Glo viability), Bt549; type: cell-based, human; conditions: Bt549 (TNBC), 72 hours
Protocol: as §5

DU4475 = test: Cytotoxicity in vitro (CellTiter-Glo viability), DU4475; type: cell-based, human; conditions: DU4475 (TNBC), 72 hours
HOS = test: Cytotoxicity in vitro (CellTiter-Glo viability), HOS; type: cell-based, human; conditions: HOS (OS), 72 hours
ES2 = test: Cytotoxicity in vitro (CellTiter-Glo viability), ES2; type: cell-based, human; conditions: ES2 (Ovarian), 72 hours
A549 = test: Cytotoxicity in vitro (CellTiter-Glo viability), A549; type: cell-based, human; conditions: A549 (NSCLC), 72 hours
TOV112D = test: Cytotoxicity in vitro (CellTiter-Glo viability), TOV112D; type: cell-based, human; conditions: TOV112D (Ovarian), 72 hours
Protocol: as §5

Hep-G2 = type: cell-based, human; conditions: Hep-G2 (HCC), 72 hours; read-out: EC50 (nM), cytotoxicity in vitro
Hep-3B = test: Cytotoxicity in vitro (CellTiter-Glo viability), Hep-3B; type: cell-based; conditions: Homo sapiens, Hep3B; Hep-3B (HCC), 72 hours
HCC1187 = test: Cytotoxicity in vitro (CellTiter-Glo viability), HCC1187; conditions: read-out: EC50 (nM), cytotoxicity in vitro; HCC1187 (TNBC), 72 hours
Protocol: as §3, §1, §4

TMD-8 = test: Cytotoxicity in vitro (CellTiter-Glo viability), TMD-8; type: cell-based, human; conditions: TMD-8 (DLBCL), 72 hours
Protocol: as §5

MDA-MB-468 = test: Cytotoxicity in vitro (CellTiter-Glo viability), MDA-MB-468; conditions: read-out: EC50 (nM), cytotoxicity in vitro; MDA-MB-468 (TNBC), 72 hours
Protocol: as §3, §1, §4

HBL-1 = test: Cytotoxicity in vitro (CellTiter-Glo viability), HBL-1; type: cell-based, human; conditions: HBL-1 (DLBCL), 72 hours
MDA-MB-231 = test: Cytotoxicity in vitro (CellTiter-Glo viability), MDA-MB-231; type: cell-based, human; conditions: MDA-MB-231 (TNBC), 72 hours
H460 = test: Cytotoxicity in vitro (CellTiter-Glo viability), H460; type: cell-based, human; conditions: H460 (NSCLC), 72 hours

CC[C@H](C)[C@@H]([C@@H](CC(=O)N1CCC[C@H]1[C@H](OC)[C@@H](C)C(=O)N[C@H](C)[C@@H](O)c1ccccc1)OC)N(C)C(=O)[C@@H](NC(=O)[C@@H](NC)C(C)C)C(C)C [MMAE, monomethyl auristatin E, reference compound] (H-[NMeV]V[Dil][Dolaproine]-X1)
EC50 (SKOvr3): 0.01 nM
EC50 (Mec-ROR): 0.6 nM
EC50 (SAOS): 0.05 nM
EC50 (A2780): 0.08 nM
EC50 (As-PC1): 0.04 nM
EC50 (U2OS): 1.2 nM
EC50 (Bx-PC3): 0.04 nM
EC50 (DOHH2): 0.007 nM
EC50 (U2932): 0.006 nM
EC50 (JHOM1): 0.01 nM
EC50 (FaDu): > 1000 nM
EC50 (OvCar4): 24.2 nM
EC50 (HCC1937): > 1000 nM
EC50 (WSU-DLCL): 0.06 nM
EC50 (Mec-vector): 0.5 nM
EC50 (Bt549): 0.047 nM
EC50 (DU4475): 2.5 nM
EC50 (HOS): 0.06 nM
EC50 (ES2): 1.1 nM
EC50 (A549): 0.06 nM
EC50 (TOV112D): 0.04 nM
EC50 (Hep-G2): > 1000 nM

CN(C)CCN1C(=O)c2cccc3cc4ccccc4c(c23)C1=O [Azonafide, azonafide, reference compound]
EC50 (Hep-3B): > 1000 nM
EC50 (A549; Homo sapiens): > 1000 nM

COc1cc2cc(c1Cl)N(C)C(=O)C[C@H](OC(=O)[C@H](C)N(C)C(=O)CCS)[C@]1(C)O[C@H]1[C@H](C)[C@@H]1C[C@@](O)(NC(=O)O1)[C@H](OC)/C=C/C=C(\C)C2 [DM1, N2′-Deacetyl-N2′-(3-mercaptol-oxopropyl)maytansine]
EC50 (SKOvr3): 9.1 nM
EC50 (HCC1187): 3.9 nM
EC50 (DOHH2): 1.78 nM
EC50 (TMD-8): 1.4 nM
EC50 (JHOM1): 0.01 nM
EC50 (OvCar4): > 1000 nM
EC50 (MDA-MB-468): 15.2 nM
EC50 (Bt549): 0.047 nM
EC50 (HBL-1): 9.3 nM
EC50 (TOV112D): 2.4 nM

COc1cccc2c1C(=O)c1c(O)c3c(c(O)c1C2=O)C[C@@](O)(C(=O)CO)C[C@@H]3O[C@H]1C[C@H]2[C@H](O[C@@H]3[C@@H](OC)OCCN32)[C@H](C)O1 [PNU-159682, reference compound]
EC50 (MDA-MB-231): 0.005 nM
EC50 (H460): 0.001 nM and 0.002 nM
